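Values below derive from 48-hour exposures of cells grown in 96-well plates, with endpoints linearly interpolated between the two concentrations bracketing the appropriate inhibition level. GI50 is the concentration that inhibits growth by half. TGI denotes the concentration required for complete inhibition of growth.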
How the values were obtained:
Assay in all cases: NCI-60 cell line screen, 48 h
[1] = test system: SF-295 CNS
[2] = test system: KM12 colon
[3] = test system: TK-10 renal
[4] = test system: U251 CNS
[5] = test system: UO-31 renal
[6] = test system: SK-MEL-28 melanoma
[7] = test system: A549 NSCLC
[8] = test system: BT-549 breast
[9] = test system: SK-MEL-5 melanoma
[10] = test system: COLO 205 colon

Row | SMILES | TGI [1] | TGI [2] | TGI [3] | TGI [4] | TGI [5] | TGI [6] | TGI [7] | TGI [8] | TGI [9] | TGI [10] | GI50 [3] | GI50 [6] | GI50 [7] | GI50 [10] | GI50 [8] | GI50 [9]
1 | O=C(OCc1ccccc1)N1CCNCCN(C(=O)OCc2ccccc2)CCNCC1 | 64.3 µM | 66.1 µM | > 100 µM | 61 µM | 38.5 µM | 45.3 µM | > 100 µM | > 100 µM | 26.7 µM | – | – | – | – | – | – | –
2 | COc1ccc2cc1Oc1ccc(cc1)C[C@H]1c3cc(c(OC)cc3CCN1C)Oc1c(O)c(OC)cc3c1[C@H](C2)N(C)CC3 | 39.7 µM | 42.6 µM | – | 60.3 µM | 58.8 µM | 48.3 µM | 75 µM | – | 29.4 µM | 39.4 µM | – | – | – | – | – | –
3 | CC(=O)/C=C/C1=C(C)CCCC1(C)CC(C)C (centres undefined) | > 100 µM | > 100 µM | > 100 µM | 86.7 µM | > 100 µM | > 100 µM | > 100 µM | – | 49.1 µM | > 100 µM | – | – | – | – | – | –
4 | N=c1nnc2ccc(Cl)cc2n1O | > 100 µM | > 100 µM | > 100 µM | > 100 µM | > 100 µM | > 100 µM | – | > 100 µM | > 100 µM | 64.5 µM | – | – | – | – | – | –
5 | Nn1c(Nc2ccc(S(=O)(=O)Nc3ncccn3)cc2)nnc(/C=C/c2c(O)ccc3ccccc23)c1=O | – | – | 75.8 µM | > 100 µM | > 100 µM | – | > 100 µM | 60 µM | – | – | – | – | – | – | – | –
6 | C=C1CCN2CC[C@@H](OC(=O)/C(C)=C\C)[C@@H]12 | > 100 µM | > 100 µM | > 100 µM | > 100 µM | > 100 µM | > 100 µM | > 100 µM | – | > 100 µM | > 100 µM | – | – | – | – | – | –
7 | O=C1c2cc3c(cc2-c2c1c1ccc(F)cc1c(=O)n2C[C@H](O)[C@@H](O)[C@H](O)CO)OCO3 | – | – | 0.858 µM | – | – | 0.765 µM | > 100 µM | 0.492 µM | 0.183 µM | 0.546 µM | 0.262 µM | 0.195 µM | 0.226 µM | 0.106 µM | 0.0687 µM | 0.0568 µM
8 | COc1cc(S(=O)(=O)Nc2nc(-c3ccc(N4C(=O)C(CC(=O)O)SC4c4cccs4)cc3)cs2)ccc1Cl (centres undefined) | > 100 µM | > 100 µM | > 100 µM | > 100 µM | 45.2 µM | > 100 µM | > 100 µM | – | > 100 µM | > 100 µM | – | – | – | – | – | –
9 | O=C(Cc1ccc(O)c(O)c1)NCc1c[nH]c2ccccc12 | > 100 µM | > 100 µM | 69.5 µM | – | > 100 µM | > 100 µM | > 100 µM | > 100 µM | > 100 µM | > 100 µM | – | – | – | – | – | –
10 | CC1(C)O[C@H]2OC(CO[Si](C)(C)C(C)(C)C)C(N=[N+]=[N-])[C@H]2O1 (some centres undefined) | 24.9 µM | 34.2 µM | 36.7 µM | 48.1 µM | 32.3 µM | 60.9 µM | 35.8 µM | 36.7 µM | – | – | – | – | – | – | – | –
11 | COc1ccc(-n2c(C)nc3ccc(NC(=S)Nc4ccccc4)cc3c2=O)cc1 | > 100 µM | > 100 µM | > 100 µM | > 100 µM | > 100 µM | > 100 µM | – | > 100 µM | > 100 µM | > 100 µM | – | – | – | – | – | –
12 | CCC(=O)NC(Nc1cc(C)on1)(C(F)(F)F)C(F)(F)F | – | > 100 µM | > 100 µM | > 100 µM | > 100 µM | > 100 µM | > 100 µM | > 100 µM | > 100 µM | – | – | – | – | – | – | –
13 | COc1ccc(/C=c2\sc3n(c2=O)CCN=3)cc1 | > 100 µM | > 100 µM | > 100 µM | > 100 µM | > 100 µM | > 100 µM | > 100 µM | – | > 100 µM | – | – | – | – | – | – | –
14 | CCOC(=O)Nc1sc2c(c1C#N)CCCC2 | > 100 µM | > 100 µM | > 100 µM | > 100 µM | > 100 µM | > 100 µM | – | > 100 µM | > 100 µM | > 100 µM | – | – | – | – | – | –
15 | Nc1nc(SCCC/C=C/I)nc2c1ncn2C1OC(COP(=O)(O)O)C(O)C1O (centres undefined) | > 100 µM | > 100 µM | > 100 µM | > 100 µM | – | > 100 µM | > 100 µM | – | > 100 µM | > 100 µM | – | – | – | – | – | –
16 | COC(=O)[C@@H](O)[C@](O)(CCC(C)C)C(=O)O[C@@H]1C(OC)=C[C@]23CCCN2CCc2cc4c(cc2[C@H]13)OCO4 | 5.68 µM | 13 µM | – | 6.05 µM | 8.42 µM | 2.78 µM | 5.19 µM | – | 5.99 µM | 2.99 µM | – | – | – | – | – | –
17 | CCCCCCCC/C=C\CCCCCCCCCCCC(=O)O | 116 µM | 70.8 µM | – | 110 µM | > 125 µM | 108 µM | > 125 µM | – | 57.5 µM | 40.4 µM | – | – | – | – | – | –
18 | O=[N+]([O-])c1ccc2[nH]nc(OCc3ccccc3Cl)c2c1 | > 100 µM | > 100 µM | 61.3 µM | > 100 µM | – | > 100 µM | > 100 µM | – | > 100 µM | > 100 µM | – | – | – | – | – | –
19 | CC(=O)N1C(C(=O)NC2CCCCC2)CSC1c1ccccc1 (centres undefined) | > 100 µM | > 100 µM | > 100 µM | > 100 µM | > 100 µM | – | > 100 µM | > 100 µM | > 100 µM | – | – | – | – | – | – | –
20 | N#C/C(=C1/Sc2c(nc[nH]c2=O)N1c1ccccc1)c1nc2ccccc2[nH]1 | > 100 µM | > 100 µM | > 100 µM | > 100 µM | > 100 µM | > 100 µM | > 100 µM | – | > 100 µM | > 100 µM | – | – | – | – | – | –
21 | C#CCn1c(=O)c2ccccc2n(CC#C)c1=O | > 10 µM | > 10 µM | > 10 µM | > 10 µM | > 10 µM | > 10 µM | > 10 µM | – | > 10 µM | > 10 µM | – | – | – | – | – | –
22 | Nc1nc2c(c(-c3cccc(Cl)c3)n1)COC/C2=C\c1cccc(Cl)c1 | > 100 µM | > 100 µM | > 100 µM | > 100 µM | 76.3 µM | > 100 µM | – | > 100 µM | > 100 µM | > 100 µM | – | – | – | – | – | –
23 | Nc1c(S(=O)(=O)O)cc2cc(S(=O)(=O)O)ccc2c1N=Nc1ccc(-c2ccc(N=Nc3c(N)c(S(=O)(=O)O)cc4cc(S(=O)(=O)O)ccc34)c(S(=O)(=O)O)c2)cc1 | > 100 µM | > 100 µM | – | > 100 µM | > 100 µM | > 100 µM | > 100 µM | – | > 100 µM | > 100 µM | – | – | – | – | – | –
24 | O=C(N/N=C/c1ccc(Cl)cc1)c1c(Cl)c(Cl)c(Cl)c(Cl)c1-c1nc2ccccc2[nH]1 | > 100 µM | > 100 µM | – | – | > 100 µM | > 100 µM | > 100 µM | > 100 µM | > 100 µM | > 100 µM | – | – | – | – | – | –

— PubChem BioAssay (NCI)
